pIC50: −log10 of the molar value.
How the values were obtained:
Format in all cases: cell-based
NCI-H69 (H69) cell line = experiment: Cell viability assay for NCI-H69 cell line; conditions: Homo sapiens, NCI-H69, 120 h, 5 days, EZ-Cytox, 0.46-3000 nM
Text: (§1) The NCI-H69 (hereafter H69) and NCI-H526 (hereafter H526) cell lines were purchased from Korea Cell Line Bank (KCLB, Seoul, Korea). For cell culture, RPMI 1640 (Gibco, Cat. No. 22400-089; Lot. No. 2537146), FBS (Gibco, Cat. No. 16000-044; Lot. No. 2511328P), Penicillin/Streptomycin (PS) (Gibco, Cat. No. 15140-122; Lot. No. 2441887), 75T cell culture flask (SPL, Cat. No. 71075), 175T cell culture flask (SPL, Cat. No. 71175), 96-well cell culture plate (SPL, Cat. No. 30096), PBS pH 7.4 (Gibco, Cat. No. 10010-023; Lot. No. 2509235), TrypLE™ Express (Gibco, Cat. No. 12605-010; Lot. No. 2323417), Cell Counter (Hematocytometer)(As one, Cat. No. 4-458-01), and 0.4% Trypan Blue Solution (DYNEBIO, Cat. No. CBT3710; Lot. No. 20221111) were used.
(§2) The compounds of Examples were completely dissolved in DMSO (Sigma-Aldrich Cat. No. D2438, Lot. No. RNBL7287) and used in the experiment. 3×10^4 cells were seeded for each well of a 96-well plate (SPL), and the cells were cultured in total volume of 150 μl. Each compound was diluted 3-folds from the highest concentration of 3000 nM to the lowest concentration of 0.46 nM. After treating the compound to each well to make the total volume of 200 μl, it was cultured in a CO2 incubator (Thermo Fisher Science, Cat. No. 4111) for 5 days. Then, after treating EZ-Cytox (DOGEN, Cat.NO. EZ-3000, Lot. No. DLS2308) 20 μl in each well, it was cultured in CO2 incubator for 4 hours. The absorbance of the completely cultured sample was measured by setting the wavelength of a plate reader (BMG Labtech, CLARIOstar Plus) to […], and was measured after shaking for 3 minutes in a plate reader before measurement.
(§3) (A: IC50 is less than 20 nM, B: IC50 is 50 nM or less, C: IC50 is 100 nM or less)

PLK1 = molecular target: T1, PLK1 (Homo sapiens, UniProt P53350); experiment: Luciferase assay for PLK1 in HeLa LgBit (PLK1-HiBit KI) cell line; conditions: released after thymidine block, compound 300 nM, luminescence after 9 hours
T1 construct: endogenous in cells; host or cells: HeLa LgBit (PLK1-HiBit KI): HeLa cells stably expressing LgBit, with CRISPR/Cas9 knock-in of HiBit at the endogenous PLK1 locus
T1 sequence (P53350 whole entry): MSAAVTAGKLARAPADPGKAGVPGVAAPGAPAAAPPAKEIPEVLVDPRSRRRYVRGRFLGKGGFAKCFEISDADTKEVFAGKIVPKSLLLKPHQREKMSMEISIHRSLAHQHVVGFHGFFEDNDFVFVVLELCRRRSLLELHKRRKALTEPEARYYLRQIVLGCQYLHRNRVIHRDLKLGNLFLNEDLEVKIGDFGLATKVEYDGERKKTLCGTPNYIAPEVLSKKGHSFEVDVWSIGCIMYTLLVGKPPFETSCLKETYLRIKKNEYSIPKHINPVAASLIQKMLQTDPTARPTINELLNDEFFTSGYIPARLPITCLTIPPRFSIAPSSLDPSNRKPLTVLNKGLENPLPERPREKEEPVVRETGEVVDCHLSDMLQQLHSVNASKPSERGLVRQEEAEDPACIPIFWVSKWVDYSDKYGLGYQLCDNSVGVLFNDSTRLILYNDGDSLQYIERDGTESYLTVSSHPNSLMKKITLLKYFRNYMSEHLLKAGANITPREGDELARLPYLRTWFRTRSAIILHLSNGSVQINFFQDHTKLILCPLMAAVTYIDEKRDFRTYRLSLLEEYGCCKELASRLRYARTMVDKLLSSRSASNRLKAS
Protocol: A HeLa cell line in which the LgBit vector was transfected and expressed stably was prepared. Then, after constructing gRNA and donor to express the HiBit amino acid sequence behind the C-terminal of the PLK1 gene, which was inherent in the cell, it was inserted into the cell together with a vector capable of expressing CRISPR/Cas9. Only the cells in which the insertion was completed and knock-in had progressed were selected, sub-cultured and used.
The compounds of Examples were completely dissolved in DMSO (Sigma-Aldrich Cat. No. D2438, Lot. No. RNBL5438) and used in the experiment.
In the case of HeLa LgBit (Plk1-HiBit KI), the compounds were treated after being released after thymidine block, and the process was as follows. Thymidine (Sigma-Aldrich Cat. No. T9250-5G) was completely dissolved in ddH2O and used in the experiment. For thymidine block, the products were treated with 2 mM of thymidine and then incubated for 24 hours. For release and chemical treatment, the medium was suctioned and washed with 1×PBS. TrypLE™ was added and incubated in 37° C. CO2 incubator (Thermo Fisher Science, Cat. No. 4111) for 5 mins. Cells neutralized by adding complete media were counted through a counter. For each well of a 96-well culture plate (SPL), 3.3×10^4 cells and a total medium volume of 150 μl were seeded and incubated in a CO2 incubator.
Each cell line was incubated in a CO2 incubator for 18 hours, and Endurazine (Promega, Cat. No. N257B) was added to each well to make up 4% of the total volume. After adding compounds of Examples in a 96-well white plate (SPL) to a concentration of 300 nM, the wavelength of the plate reader (BMG Labtech, CLARIOstar Plus) was set to 470-480 nM, and then the luminescence was tracked in real time.

[1] = system: NCI-H526 (H526) cell line; experiment: Cell viability assay for NCI-H526 cell line; conditions: Homo sapiens, NCI-H526, 120 h, 5 days, EZ-Cytox, 0.46-3000 nM
Text: as §1, §2, §3

Value (luminescence value, PLK1-HiBit) (PLK1) | Structure (SMILES) | pIC50 (NCI-H69 (H69) cell line) | pIC50 [1]
0.139 | CC[C@@H]1C(=O)N(C)c2cnc(Nc3ccc(C(=O)NC4CCC(N5CCN(CCNc6ccc(C7CCC(=O)NC7=O)cc6)CC5)CC4)cc3OC)nc2N1C1CCCC1 (stereo partly drawn) [Compound 1, 4-(((R)-8-cyclopentyl-7-ethyl-5-methyl-6-oxo-5,6,7,8-tetrahydropteridin-2-yl)amino)-N-((1r,4R)-4-(4-(2-((4-(2,6-dioxopiperidin-3-yl)phenyl)amino)ethyl)piperazin-1-yl)cyclohexyl)-3-methoxybenzamide] | > 7.70 | > 7.70
0.253 | CC[C@@H]1C(=O)N(C)c2cnc(Nc3ccc(C(=O)NC4CCC(N5CCN(CCCc6ccc(NC7CCC(=O)NC7=O)cc6)CC5)CC4)cc3OC)nc2N1C1CCCC1 (stereo partly drawn) [Compound 3, 4-(((R)-8-cyclopentyl-7-ethyl-5-methyl-6-oxo-5,6,7,8-tetrahydropteridin-2-yl)amino)-N-((1r,4R)-4-(4-(3-(4-((2,6-dioxopiperidin-3-yl)amino)phenyl)propyl)piperazin-1-yl)cyclohexyl)-3-methoxybenzamide] | > 7.70 | > 7.70
0.157 | CC[C@@H]1C(=O)N(C)c2cnc(Nc3ccc(C(=O)NC4CCC(N5CCN(CCc6ccc(NC7CCC(=O)NC7=O)cc6)CC5)CC4)cc3OC)nc2N1C1CCCC1 (stereo partly drawn) [Compound 4, 4-(((R)-8-cyclopentyl-7-ethyl-5-methyl-6-oxo-5,6,7,8-tetrahydropteridin-2-yl)amino)-N-((1r,4R)-4-(4-(4-((2,6-dioxopiperidin-3-yl)amino)phenethyl)piperazin-1-yl)cyclohexyl)-3-methoxybenzamide] | > 7.70 | > 7.70
0.279 | CC[C@@H]1C(=O)N(C)c2cnc(Nc3ccc(C(=O)NC4CCC(N5CCC(NCc6ccc(C7CCC(=O)NC7=O)cc6)CC5)CC4)cc3OC)nc2N1C1CCCC1 (stereo partly drawn) [Compound 8, 4-(((R)-8-cyclopentyl-7-ethyl-5-methyl-6-oxo-5,6,7,8-tetrahydropteridin-2-yl)amino)-N-((1r,4R)-4-(4-((4-(2,6-dioxopiperidin-3-yl)benzyl)amino)piperidin-1-yl)cyclohexyl)-3-methoxybenzamide] | > 7.70 | > 7.70

Further lines, the molecule ahead of its results:

Structure (SMILES) | Value (luminescence value, PLK1-HiBit) (PLK1) | pIC50 (NCI-H69 (H69) cell line) | pIC50 [1]
CC[C@@H]1C(=O)N(C)c2cnc(Nc3ccc(C(=O)NC4CCC(N5CCC(CNc6ccc(C7CCC(=O)NC7=O)cc6)CC5)CC4)cc3OC)nc2N1C1CCCC1 (stereo partly drawn) [Compound 2, 4-(((R)-8-cyclopentyl-7-ethyl-5-methyl-6-oxo-5,6,7,8-tetrahydropteridin-2-yl)amino)-N-((1r,4R)-4-(4-(((4-(2,6-dioxopiperidin-3-yl)phenyl)amino)methyl)piperidin-1-yl)cyclohexyl)-3-methoxybenzamide] | 0.129 | > 7.70 | > 7.70
CC[C@@H]1C(=O)N(C)c2cnc(Nc3ccc(C(=O)NC4CCC(N5CCN(CCNc6cccc7c6CN(C6CCC(=O)NC6=O)C7=O)CC5)CC4)cc3OC)nc2N1C1CCCC1 (stereo partly drawn) [Compound 5, 4-(((R)-8-cyclopentyl-7-ethyl-5-methyl-6-oxo-5,6,7,8-tetrahydropteridin-2-yl)amino)-N-((1r,4R)-4-(4-(2-((2-(2,6-dioxopiperidin-3-yl)-1-oxoisoindolin-4-yl)amino)ethyl)piperazin-1-yl)cyclohexyl)-3-methoxybenzamide] | 0.376 | > 7.70 | > 7.70
CC[C@@H]1C(=O)N(C)c2cnc(Nc3ccc(C(=O)NC4CCC(N5CCC(CNc6cccc7c6CN(C6CCC(=O)NC6=O)C7=O)CC5)CC4)cc3OC)nc2N1C1CCCC1 (stereo partly drawn) [Compound 6, 4-(((R)-8-cyclopentyl-7-ethyl-5-methyl-6-oxo-5,6,7,8-tetrahydropteridin-2-yl)amino)-N-((1r,4R)-4-(4-(((2-(2,6-dioxopiperidin-3-yl)-1-oxoisoindolin-4-yl)amino)methyl)piperidin-1-yl)cyclohexyl)-3-methoxybenzamide] | 0.286 | ≥ 7.30 | > 7.70
CC[C@@H]1C(=O)N(C)c2cnc(Nc3ccc(C(=O)NC4CCC(N5CCC(CNCc6ccc(C7CCC(=O)NC7=O)cc6)CC5)CC4)cc3OC)nc2N1C1CCCC1 (stereo partly drawn) [Compound 7, 4-(((R)-8-cyclopentyl-7-ethyl-5-methyl-6-oxo-5,6,7,8-tetrahydropteridin-2-yl)amino)-N-((1r,4R)-4-(4-(((4-(2,6-dioxopiperidin-3-yl)benzyl)amino)methyl)piperidin-1-yl)cyclohexyl)-3-methoxybenzamide] | 0.214 | ≥ 7.30 | > 7.70
CC[C@@H]1C(=O)N(C)c2cnc(Nc3ccc(C(=O)NC4CCN(C(=O)C(N)CN5CCN(c6cccc7c6C(=O)N(C6CCC(=O)NC6=O)C7=O)CC5)CC4)cc3OC)nc2N1C1CCCC1 (stereo partly drawn) [Compound 9, N-(1-(2-amino-3-(4-(2-(2,6-dioxopiperidin-3-yl)-1,3-dioxoisoindolin-4-yl)piperazin-1-yl)propanoyl)piperidin-4-yl)-4-(((R)-8-cyclopentyl-7-ethyl-5-methyl-6-oxo-5,6,7,8-tetrahydropteridin-2-yl)amino)-3-methoxybenzamide] | 0.377 | ≥ 7.00 | > 7.70
CC[C@@H]1C(=O)N(C)c2cnc(Nc3ccc(C(=O)NC4CCN(C(=O)C(N)CN5CCN(c6ccc(C7CCC(=O)NC7=O)cc6)CC5)CC4)cc3OC(F)(F)F)nc2N1C1CCCC1 (stereo partly drawn) [Compound 10, N-(1-(2-amino-3-(4-(4-(2,6-dioxopiperidin-3-yl)phenyl)piperazin-1-yl)propanoyl)piperidin-4-yl)-4-(((R)-8-cyclopentyl-7-ethyl-5-methyl-6-oxo-5,6,7,8-tetrahydropteridin-2-yl)amino)-3-(trifluoromethoxy)benzamide] | 0.282 | ≥ 7.00 | ≥ 7.30
CC[C@@H]1C(=O)N(C)c2cnc(Nc3ccc(C(=O)NC4CCN(C(=O)C(N)CN5CCN(c6ccc(C7CCC(=O)NC7=O)cc6)CC5)CC4)cc3OC)nc2N1C1CCCC1 (stereo partly drawn) [Compound 11, N-(1-(2-amino-3-(4-(4-(2,6-dioxopiperidin-3-yl)phenyl)piperazin-1-yl)propanoyl)piperidin-4-yl)-4-(((R)-8-cyclopentyl-7-ethyl-5-methyl-6-oxo-5,6,7,8-tetrahydropteridin-2-yl)amino)-3-methoxybenzamide] | 0.234 | ≥ 7.30 | > 7.70
CC[C@@H]1C(=O)N(C)c2cnc(Nc3ccc(C(=O)NC4CCC(N5CCC(NCc6cccc7c6CN(C6CCC(=O)NC6=O)C7=O)CC5)CC4)cc3OC)nc2N1C1CCCC1 (stereo partly drawn) [Compound 12, 4-(((R)-8-cyclopentyl-7-ethyl-5-methyl-6-oxo-5,6,7,8-tetrahydropteridin-2-yl)amino)-N-((1r,4R)-4-(4-(((2-(2,6-dioxopiperidin-3-yl)-1-oxoisoindolin-4-yl)methyl)amino)piperidin-1-yl)cyclohexyl)-3-methoxybenzamide] | 0.372 | ≥ 7.00 | ≥ 7.30
